Laboratory results from ChEMBL document CHEMBL1201862, “PubChem BioAssay data set” (2004).
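Results reflect a 48-hour exposure of cells in 96-well plates to compound at five concentrations. At the GI50, growth is halved.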 The source made the active and inactive calls. Rule as the data show it: active = GI50 up to about 1.1 µM and inactive = higher.

Experiments:
Assay in all cases: NCI anticancer screen, dose series, 48 h
CAKI-1 = test system: CAKI-1
K562 = test system: K562
RPMI-8226 = test system: RPMI-8226
UACC-257 = test system: UACC-257
SNB-19 = test system: SNB-19
NCI-H522 = test system: NCI-H522
DMS-273 = test system: DMS-273
HCC 2998 = test system: HCC 2998
786-0 = test system: 786-0
SNB-78 = test system: SNB-78
XF498 = test system: XF498
COLO 205 = test system: COLO 205
HT-29 = test system: HT-29
CCRF-CEM = test system: CCRF-CEM
MOLT-4 = test system: MOLT-4
SK-MEL-5 = test system: SK-MEL-5
UACC-62 = test system: UACC-62
HOP-18 = test system: HOP-18
HCT-116 = test system: HCT-116
M19-MEL = test system: M19-MEL
A549 = test system: A549
SN12C = test system: SN12C
SNB-75 = test system: SNB-75
Malme-3M = test system: Malme-3M
SR = test system: SR
SF-295 = test system: SF-295
SW-620 = test system: SW-620
ACHN = test system: ACHN
DMS-114 = test system: DMS-114
UO-31 = test system: UO-31
OVCAR-5 = test system: OVCAR-5
HL-60 = test system: HL-60
SK-MEL-2 = test system: SK-MEL-2
M14 = test system: M14
A498 = test system: A498
NCI-H226 = test system: NCI-H226
IGROV-1 = test system: IGROV-1
RXF 393 = test system: RXF 393
SK-OV-3 = test system: SK-OV-3
NCI-H23 = test system: NCI-H23
HOP-92 = test system: HOP-92
KM12 = test system: KM12
SF-268 = test system: SF-268
OVCAR-8 = test system: OVCAR-8
DLD-1 = test system: DLD-1
OVCAR-4 = test system: OVCAR-4
HCT-15 = test system: HCT-15
LXFL 529 = test system: LXFL 529
EKVX = test system: EKVX
KM-20L2 = test system: KM-20L2
TK-10 = test system: TK-10
OVCAR-3 = test system: OVCAR-3
NCI-H460 = test system: NCI-H460
SK-MEL-28 = test system: SK-MEL-28
LOX IMVI = test system: LOX IMVI
U-251 = test system: U-251
RXF 631 = test system: RXF 631
HOP-62 = test system: HOP-62

In the case of CC(C)(C)CC(C)(C)c1ccc(OCCOCC[N+](C)(C)Cc2ccccc2)cc1 [BENZETHONIUM CHLORIDE], the GI50 (CAKI-1) was 10.1 µM (inactive), the GI50 (K562) was 2.19 µM (inactive) and the GI50 (RPMI-8226) was 1.29 µM (inactive). For the same compound, the GI50 (UACC-257) was 1.45 µM (inactive), the GI50 (SNB-19) was 3.1 µM (inactive) and the GI50 (NCI-H522) was 1.66 µM (inactive). For the same compound, the GI50 (DMS-273) was 1.44 µM (inactive), the GI50 (HCC 2998) was 1.5 µM (inactive) and the GI50 (786-0) was 5.01 µM (inactive). The GI50 (SNB-78) was 1.63 µM (inactive), the GI50 (XF498) was 377 nM (active) and the GI50 (COLO 205) was 1.49 µM (inactive). The GI50 (HT-29) was 1.6 µM (inactive), the GI50 (CCRF-CEM) was 1.79 µM (inactive) and the GI50 (MOLT-4) was 2.22 µM (inactive). For the same compound, the GI50 (SK-MEL-5) was 1.39 µM (inactive), the GI50 (UACC-62) was 1.36 µM (inactive) and the GI50 (HOP-18) was 2.79 µM (inactive). The GI50 (HCT-116) was 1.71 µM (inactive), the GI50 (M19-MEL) was 1.53 µM (inactive) and the GI50 (A549) was 8.71 µM (inactive). For the same compound, the GI50 (SN12C) was 3.52 µM (inactive), the GI50 (SNB-75) was 2.43 µM (inactive) and the GI50 (Malme-3M) was 1.52 µM (inactive). For the same compound, the GI50 (SR) was 2.03 µM (inactive), the GI50 (SF-295) was 11 µM (inactive) and the GI50 (SW-620) was 2.69 µM (inactive). The GI50 (ACHN) was 11.6 µM (inactive), the GI50 (DMS-114) was 1.15 µM (inactive) and the GI50 (UO-31) was 21.6 µM (inactive). The GI50 (OVCAR-5) was 6.17 µM (inactive), the GI50 (HL-60) was 883 nM (active) and the GI50 (SK-MEL-2) was 2.06 µM (inactive). The GI50 (M14) was 2.08 µM (inactive), the GI50 (A498) was 16.6 µM (inactive) and the GI50 (NCI-H226) was 5.19 µM (inactive). The GI50 (IGROV-1) was 1.52 µM (inactive), the GI50 (RXF 393) was 3.11 µM (inactive) and the GI50 (SK-OV-3) was 7.43 µM (inactive). For the same compound, the GI50 (NCI-H23) was 1.66 µM (inactive), the GI50 (HOP-92) was 1.88 µM (inactive) and the GI50 (KM12) was 1.61 µM (inactive). For the same compound, the GI50 (SF-268) was 1.94 µM (inactive), the GI50 (OVCAR-8) was 3.19 µM (inactive) and the GI50 (DLD-1) was 4.21 µM (inactive). The GI50 (OVCAR-4) was 2.06 µM (inactive), the GI50 (HCT-15) was 20.5 µM and the GI50 (LXFL 529) was 1.32 µM (inactive). For the same compound, the GI50 (EKVX) was 4.2 µM (inactive), the GI50 (KM-20L2) was 3.89 µM (inactive) and the GI50 (TK-10) was 3.64 µM (inactive). The GI50 (OVCAR-3) was 1.52 µM (inactive), the GI50 (NCI-H460) was 3.05 µM (inactive) and the GI50 (SK-MEL-28) was 1.86 µM (inactive). The GI50 (LOX IMVI) was 1.42 µM (inactive), the GI50 (U-251) was 1.54 µM (inactive) and the GI50 (RXF 631) was 11.9 µM (inactive). For the same compound, the GI50 (HOP-62) was 8.93 µM (inactive).
